Source: patent publication US20090317436A1, “COMPUTER DEVICES AND ACCESSORIES” (priority 2006, published 2009)

Experiments:
Format in all cases: cell-based
[1] = test system: Staphylococcus aureus NCTC 6571; test: Lethal photosensitization of S. aureus by photosensitizer-gold nanoparticle mixtures (Examples 2-8, Table 2), viable counting; details: for effect of diluting the gold nanoparticles on killing of S. aureus: 2 nm gold nanoparticles; for enhancement of lethal photosensitization compared with TB in the absence of nanogold: 15 nm nanogold
Procedure: Gold nanoparticles of approximately 15 nm in diameter (batches NN1 and NN2 above) were mixed with an equal volume of aqueous toluidine blue O (TB) and left at room temperature for 15 minutes. TB was used at a final concentration of 1, 5, 10, 20 or 50 μM.
100 μl of the TB-gold mixture was added to 100 μl of a suspension of Staphylococcus aureus NCTC 6571 in phosphate buffered saline (PBS) (adjusted to an optical density of 0.05), and samples were irradiated with a fluorescent white light (28 W) for 10 minutes. S. aureus+TB only, and S. aureus+PBS, without photosensitizer or nanogold were used as controls. The final concentration of nanogold used was 1×10^15 particles/ml.
After irradiation, the numbers of surviving bacteria were enumerated by viable counting.
The method of Example 2 was repeated using gold nanoparticles of 2 nm diameter (British Biocell International). The final concentration of nanogold used was 4×10^13 particles/ml. TB was used at a final concentration of 10, 20 or 50 μM.
Experiments were performed as for Example 3, with the following modifications: Prior to mixing with the photosensitizer, the gold nanoparticles were either left undiluted, or diluted 1 in 10 or 1 in 100 in sterile, distilled water. The nanoparticles were then added to TB (final concentration 20 μM).
The samples were then illuminated for 30 seconds using a fibre optic white light source (Schott KL200). The surviving bacteria were enumerated by viable counting as before.
Example 4 was repeated using methylene blue (MB; 20 μM) as the photosensitizer.
Example 5 was repeated using 2 nm gold nanoparticles (British Biocell International).
Example 6 was repeated using tin chlorin e6 (SnCe6; 20 μg/ml) as the photosensitizer. The illumination time was 10 minutes. […]

[2] = test system: Staphylococcus aureus NCTC 6571; test: as above; details: Example 2
[3] = test system: Staphylococcus aureus NCTC 6571; test: Lethal photosensitization of S. aureus using TBO-tiopronin-gold nanoparticle conjugate (Examples 2-5, Table 3); details: Example 4, any length of time
[4] = test system: Staphylococcus aureus NCTC 6571; test: Lethal photosensitization of S. aureus by toluidine blue/gold nanoparticle mixture (Example 1), viable counting
Procedure: Gold nanoparticles (2.0 nm diameter; British Biocell International) in water (15×10^13 particles per ml) were mixed with an equal volume of an aqueous solution of toluidine blue O (40 μM) and left at room temperature for 15 minutes. 100 μl of the gold-TB solution was added to 100 μl of a suspension of Staphylococcus aureus NCTC 6571 in phosphate buffered saline (PBS) and this was irradiated with white light from an 18 W fluorescent white lamp for 10 minutes. Controls consisted of: • (i) TB (final concentration=10 μM) and bacteria, irradiated for the same period of time, • (ii) nanogold (diluted 1:1 with water) and bacteria, irradiated for the same period of time, • (iii) bacteria without TB or nanogold, not irradiated (“control”).
After irradiation, the number of surviving bacteria was determined by viable counting.

[5] = test system: Staphylococcus aureus NCTC 6571; test: Lethal photosensitization of S. aureus using a different TBO-tiopronin-gold nanoparticle conjugate (Examples 6-7, Table 4); details: white light 30 mins; free TBO control

nile blue sulphate
effectiveness of combination against Staphylococcus aureus ([1]; 20 to 50 mM with 2 nm gold nanoparticles at 4×10^13 particles/ml): particularly effective
Result (% kill class) ([1]; Example 8, photosensitiser 10 mM, gold nanoparticles 2 nm, 4 × 10^13 particles/ml, illuminated 30 minutes): *** (95-99% kill)
Result (% kill class) ([1]; Example 8, photosensitiser 20 mM, gold nanoparticles 2 nm, 4 × 10^13 particles/ml, illuminated 30 minutes): **** (99-100% kill)
Result (% kill class) ([1]; Example 8, photosensitiser 50 mM, gold nanoparticles 2 nm, 4 × 10^13 particles/ml, illuminated 30 minutes): **** (99-100% kill)

CN(C)c1ccc2nc3ccc(=[N+](C)C)cc-3sc2c1 [Methylene blue, methylene blue]
effectiveness of combination against Staphylococcus aureus ([1]; 20 mM with 2 nm gold nanoparticles at 4×10^11 to 4×10^13 particles/ml): particularly effective
effectiveness of combination against Staphylococcus aureus ([1]; 20 mM with 15 nm gold nanoparticles at 1×10^13 to 1×10^15 particles/ml): particularly effective
Result (% kill class) ([1]; Example 5, photosensitiser 20 mM, gold nanoparticles 15 nm, 1 × 10^13 particles/ml, fibre optic white light 30 seconds): **** (99-100% kill)
Result (% kill class) ([1]; Example 5, photosensitiser 20 mM, gold nanoparticles 15 nm, 1 × 10^14 particles/ml, fibre optic white light 30 seconds): **** (99-100% kill)
Result (% kill class) ([1]; Example 5, photosensitiser 20 mM, gold nanoparticles 15 nm, 1 × 10^15 particles/ml, fibre optic white light 30 seconds): **** (99-100% kill)
effect of diluting the gold nanoparticles on killing of S. aureus ([1]; Example 6, MB 20 μM): enhanced the killing of S. aureus slightly
Result (% kill class) ([1]; Example 6, photosensitiser 20 mM, gold nanoparticles 2 nm, 4 × 10^11 particles/ml, fibre optic white light 30 seconds): **** (99-100% kill)
Result (% kill class) ([1]; Example 6, photosensitiser 20 mM, gold nanoparticles 2 nm, 4 × 10^12 particles/ml, fibre optic white light 30 seconds): **** (99-100% kill)
Result (% kill class) ([1]; Example 6, photosensitiser 20 mM, gold nanoparticles 2 nm, 4 × 10^13 particles/ml, fibre optic white light 30 seconds): **** (99-100% kill)

C=CC1=C(C)C2=CC3=NC(=C(CC(=O)[O-])C4=NC(=C(C)C4=C([O-])[O-])C=c4[n-]c(c(C)c4CC)=CC1=N2)C(CCC(=O)[O-])C3C.[H+].[Sn+4] (stereo not shown) [Tin chlorine6, tin chlorin e6]
effectiveness of combination against Staphylococcus aureus ([1]; 20 mg/ml with 2 nm gold nanoparticles at 4×10^11 particles/ml): particularly effective
effect of diluting the gold nanoparticles on killing of S. aureus ([1]; Example 7, SnCe6 20 μg/ml, illumination 10 minutes): enhanced the killing of S. aureus
Result (% kill class) ([1]; Example 7, photosensitiser 20 m/ml, gold nanoparticles 2 nm, 4 × 10^11 particles/ml, illumination 10 minutes): *** (95-99% kill)
Result (% kill class) ([1]; Example 7, photosensitiser 20 m/ml, gold nanoparticles 2 nm, 4 × 10^12 particles/ml, illumination 10 minutes): ** (90-95% kill)
Result (% kill class) ([1]; Example 7, photosensitiser 20 m/ml, gold nanoparticles 2 nm, 4 × 10^13 particles/ml, illumination 10 minutes): — (less than 50% kill)

Cc1cc2nc3ccc(N(C)C)cc3[s+]c2cc1N.[Cl-] [Toluidine blue, toluidine blue O]
Result (% kill class) ([2]; photosensitiser 100 mM, gold nanoparticles 15 nm, 1 × 10^15 particles/ml, fluorescent white light (28 W) 10 minutes): ** (90-95% kill)
enhancement of lethal photosensitization ([2]; with nanogold, TB 10 or 100 μM): little enhancement
effect when irradiated with white light [3]: no effect
% Kill ([4]; 18 W fluorescent white lamp 10 minutes, TB final 10 μM, 2.0 nm gold nanoparticles): 93.7%
kill of the bacterial suspensions ([4]; preliminary experiments, 30 minutes light exposure): total kills
S. aureus (cfu/ml) ([4]; surviving bacteria after 18 W fluorescent white lamp 10 minutes, TB final 10 μM, 2.0 nm gold nanoparticles): 8570000 cfu/ml
kills of the organism (in words) [5]: significant kills of the organism only at a concentration of 2.0 μm
effectiveness of combination against Staphylococcus aureus ([1]; 20 mM with 2 nm gold nanoparticles at 4×10^13 particles/ml): particularly effective
enhancement of lethal photosensitization ([1]; 2 nm nanogold particles, 10 μM or 50 μM TB): not when either 10 μM or 50 μM TB was used
enhancement of lethal photosensitization ([1]; 2 nm nanogold particles, 20 μM TB): enhancement of lethal photosensitization was evident
enhancement of lethal photosensitization compared with TB in the absence of nanogold ([1]; TB 1 μM): little enhancement
enhancement of lethal photosensitization compared with TB in the absence of nanogold ([1]; TB 5, 10 and 20 μM): enhancement was evident
enhancement of lethal photosensitization compared with TB in the absence of nanogold ([1]; TB 10 and 20 μM): Enhancement was greatest
effectiveness of combination against Staphylococcus aureus ([1]; 20 to 50 mM with 15 nm gold nanoparticles at 1×10^14 to 1×10^15 particles/ml): particularly effective
Result (% kill class) ([1]; Example 2, photosensitiser 1 mM, gold nanoparticles 15 nm, 1 × 10^15 particles/ml, fluorescent white light (28 W) 10 minutes): — (less than 50% kill)
Result (% kill class) ([1]; Example 2, photosensitiser 5 mM, gold nanoparticles 15 nm, 1 × 10^15 particles/ml, fluorescent white light (28 W) 10 minutes): * (50-90% kill)
Result (% kill class) ([1]; Example 2, photosensitiser 20 mM, gold nanoparticles 15 nm, 1 × 10^15 particles/ml, fluorescent white light (28 W) 10 minutes): **** (99-100% kill)
Result (% kill class) ([1]; Example 2, photosensitiser 50 mM, gold nanoparticles 15 nm, 1 × 10^15 particles/ml, fluorescent white light (28 W) 10 minutes): **** (99-100% kill)
enhancement of lethal photosensitization ([1]; Example 2, with nanogold, TB 20 and 50 μM): enhancement was greatest
Result (% kill class) ([1]; Example 3, photosensitiser 10 mM, gold nanoparticles 2 nm, 4 × 10^13 particles/ml, fluorescent white light (28 W) 10 minutes): * (50-90% kill)
Result (% kill class) ([1]; Example 3, photosensitiser 20 mM, gold nanoparticles 2 nm, 4 × 10^13 particles/ml, fluorescent white light (28 W) 10 minutes): **** (99-100% kill)
Result (% kill class) ([1]; Example 3, photosensitiser 50 mM, gold nanoparticles 2 nm, 4 × 10^13 particles/ml, fluorescent white light (28 W) 10 minutes): * (50-90% kill)
enhancement compared with undiluted nanogold ([1]; Example 4, TB 20 μM, nanoparticles diluted 1 in 10, white light 30 seconds): greater enhancement
Result (% kill class) ([1]; Example 4, photosensitiser 20 mM, gold nanoparticles 15 nm, 1 × 10^14 particles/ml, fibre optic white light 30 seconds): **** (99-100% kill)
Result (% kill class) ([1]; Example 4, photosensitiser 20 mM, gold nanoparticles 15 nm, 1 × 10^15 particles/ml, fibre optic white light 30 seconds): *** (95-99% kill)
